Source: patent US8754057B2, “Inhibition of apoptosis-specific eIF-5A(eIF-5A1″) with antisense oligonucleotides and siRNA as anti-inflammatory therapeutics” (Senesco Technologies, Inc., priority 2003, dated 2014)

Tests used:
[1] = tested on: lamina cribrosa cell line #506; assay: Hoescht staining apoptosis of siRNA-transfected lamina cribrosa cells treated with TNF-α and camptothecin; assay type: cell-based, human; conditions: LC #506, 72 h after siRNA transfection, 24 h 10 ng/ml TNF-α plus 50 μM camptothecin
Experimental: Lamina cribrosa cell line #506 cells were seeded at 7500 cells per well onto an 8-well culture slide. Three days later the LC cells were transfected with either GAPDH siRNA, apoptosis-specific eIF-5A siRNAs #1-4 (SEQ ID NO:30-33), or control siRNA #5 (SEQ ID NO:34). 72 hours after transfection, the transfected cells were treated with 10 ng/ml TNF-α plus 50 μM camptothecin. Twenty-four hours later the cells were stained with Hoescht 33258 and viewed by fluorescence microscopy using a UV filter. Cells with brightly stained condensed or fragmented nuclei were counted as apoptotic. This graph represents the average of n=4 independent experiments.
Following transfection, RKO and lamina cribrosa cells were incubated for 72 hours prior to collection of cellular extract for Western blot analysis. In order to determine the effectiveness of the siRNAs directed against apoptosis-specific eIF-5A to block apoptosis, lamina cribrosa cells were treated with 50 μM of camptothecin (Sigma) and 10 ng/ml of TNF-α (Leinco Technologies) to induce apoptosis either 48 or 72 hours after transfection. The cells were stained with Hoescht either 24 or 48 hours later in order to determine the percentage of cells undergoing apoptosis.
Small inhibitory RNAs (siRNAs) directed against human apoptosis-specific eIF-5A were used to specifically suppress expression of eIF5A in lamina cribrosa cells. Six siRNAs were generated by in vitro transcription using the Silencer™ siRNA Construction Kit (Ambion Inc.), Four siRNAs were generated against human apoptosis-specific eIF-5A (siRNAs #1 to #4). […] The siRNAs were generated according to the manufacturer's protocol. The eIF5A and control siRNA targets had the following sequences: siRNA #1 5′ […] 3′ (SEQ ID NO: 81); siRNA #2 5′ […] 3′ (SEQ ID NO: 82); siRNA #3 5′ […] 3′ (SEQ ID NO: 83); siRNA #4 5′ […] 3′ (SEQ ID NO: 84); siRNA #5′ […] 3′ (SEQ ID NO: 85). Lamina cribrosa cells were transfected with siRNA using LipofectAMINE 2000.
Lamina cribrosa cells were transfected when cell confluence was at 40 to 70% and were generally seeded onto 8-well culture slides at 7500 cells per well three days prior to transfection. Transfection medium sufficient for one well of an 8-well culture slide was prepared by diluting 25.5 proles of siRNA to a final volume of 21.2 μl in Opti-Mem (Sigma). 0.425 μl of Lipofectamine 2000 was diluted to a final volume of 21.2 μl in Opti-Mem and incubated for 7 to 10 minutes at room temperature. The diluted Lipofectamine 2000 mixture was then added to the diluted siRNA mixture and incubated together at room temperature for 20 to 30 minutes, The cells were washed once with serum-free media before adding 135 μl of serum-free media to the cells and overlaying 42.4 μl of transfection medium. […]

[2] = tested on: lamina cribrosa cell line #517; assay: as above; assay type: cell-based, human; conditions: 72 h after siRNA transfection, 24 h TNF-α plus camptothecin
Experimental: Lamina cribrosa cell line #517 cells were seeded at 7500 cells per well onto an 8-well culture slide. Three days later the LC cells were transfected with either apoptosis-specific eIF-5A siRNA #1 (SEQ ID NO:30) or control siRNA #5 (SEQ ID NO:34). 72 hours after transfection, the transfected cells were treated with 10 ng/ml TNF-α plus 50 μM camptothecin. Twenty-four hours later the cells were stained with Hoescht 33258 and viewed by fluorescence microscopy using a UV filter. Cells with brightly stained condensed or fragmented nuclei were counted as apoptotic. The results of two independent experiments are represented here.
Small inhibitory RNAs (siRNAs) directed against human apoptosis-specific eIF-5A were used to specifically suppress expression of eIF5A in lamina cribrosa cells. Six siRNAs were generated by in vitro transcription using the Silencer™ siRNA Construction Kit (Ambion Inc.), Four siRNAs were generated against human apoptosis-specific eIF-5A (siRNAs #1 to #4). […] The siRNAs were generated according to the manufacturer's protocol. […]
Transfected cells that had been treated with TNF-α and camptothecin for 24 hours were stained with Hoescht 33258 in order to determine the percentage of cells undergoing apoptosis. […] Cells with brightly stained or fragmented nuclei were scored as apoptotic. A minimum of 200 cells were counted per well. […]

In the case of “siRNA #1: siRNA against human apoptosis-specific eIF-5A (SEQ ID NO:30); target 5′ AAAGGAATGACTTCCAGCTGA 3′ (SEQ ID NO: 81) (AAAGGAAUGACUUCCAGCUGATT; RNA, all phosphodiester, T or U not given here; listed as Homo sapiens)”, the “reduce apoptosis of LC cells” value [1] is reported as 59% and the “reduce apoptosis of the LC line #517” value [2] is reported as 53%.
